pIC50: −log10 of the molar value.
Biological target: BACE1 (Homo sapiens, UniProt P56817)
Test: BACE1 FRET assay
Type: biochemical

BACE1, sequence (P56817 46-501): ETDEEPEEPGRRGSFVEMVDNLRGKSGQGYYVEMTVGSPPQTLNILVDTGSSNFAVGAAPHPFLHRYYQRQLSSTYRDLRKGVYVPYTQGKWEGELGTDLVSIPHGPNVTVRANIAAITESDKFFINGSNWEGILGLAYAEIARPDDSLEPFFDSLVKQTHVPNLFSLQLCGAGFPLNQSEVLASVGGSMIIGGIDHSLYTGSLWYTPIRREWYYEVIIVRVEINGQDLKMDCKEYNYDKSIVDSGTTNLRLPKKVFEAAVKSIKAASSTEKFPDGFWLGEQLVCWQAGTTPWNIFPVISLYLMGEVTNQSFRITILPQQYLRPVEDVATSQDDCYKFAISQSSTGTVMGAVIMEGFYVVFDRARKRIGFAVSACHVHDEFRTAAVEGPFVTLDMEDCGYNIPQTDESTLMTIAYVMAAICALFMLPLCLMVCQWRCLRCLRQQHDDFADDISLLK

SMILES | pIC50
COc1cc(OC)c2c(O)c3c(=O)cc(C)oc3c(-c3c(OC)cc4cc(O)c5c(=O)cc(C)oc5c4c3OC)c2c1 [Compound 4, fonsecinone A] | 4.83
COc1cc(OC)c2c(O)c3c(=O)cc(C)oc3c(-c3c(O)cc4cc(O)c5c(=O)cc(C)oc5c4c3OC)c2c1 [Compound 7, asperpyrone A] | 4.44

Source: paper PMC10088752 (Journal of Natural Medicines, 2023)
